Measurements as given in ChEMBL document CHEMBL4483862, “Open-source discovery of chemical leads for next-generation chemoprotective antimalarials” (2018).

System: Plasmodium berghei
Assay: Luciferase/luciferin-expressing antifolate-resistant parasites were used to infect a culture of HepG2 cells that were pre-incubated with compounds. Infected hepatocytes emit light due to the luciferase reaction. Assay results are presented as the percent inhibition of light emission compared to control. […]
Assay type: functional
Conditions: sporozoite; for IC90: read-out: LUCIFERASE INFECTION ASSAY - IC90

Row | SMILES | IC90 [µM] | other results
1 | O=C(c1cc(-c2ccccc2)[nH]n1)N1CCN(S(=O)(=O)c2ccccc2)CC1 | > 10 | IC50 (PBLUC_HILL_SLOPE 0.361, PBLUC_R_SQUARED 0.34, read-out: LUCIFERASE INFECTION ASSAY - IC50): 1.07 µM
2 | Cc1cc(C(=O)Cn2nnc3ccccc3c2=O)c(C)n1-c1ccccc1F | 3.8 | IC50 (PBLUC_HILL_SLOPE 0.371, 0.679, PBLUC_R_SQUARED 0.784, 0.965, read-out: LUCIFERASE INFECTION ASSAY - IC50): 0.126 µM
3 | COc1cc(-c2nc3ccc(NC(=O)c4ccco4)cn3n2)cc(OC)c1OC | > 10 | IC50 (PBLUC_HILL_SLOPE 0.261, PBLUC_R_SQUARED 0.0451, read-out: LUCIFERASE INFECTION ASSAY - IC50): > 10 µM
4 | COC(=O)c1c(NC(=O)CSc2nnc(-c3ccccc3Cl)n2C2CCCC2)sc(C)c1C | > 10 | IC50 (PBLUC_HILL_SLOPE 0.364, PBLUC_R_SQUARED 0.4, read-out: LUCIFERASE INFECTION ASSAY - IC50): > 10 µM
5 | CC(C)c1nc(NCC2CCCO2)c(C#N)c2c1CCCC2 (stereo not given) | > 11 | IC50 (PBLUC_HILL_SLOPE 0.297, PBLUC_R_SQUARED 0.0572, read-out: LUCIFERASE INFECTION ASSAY - IC50): > 11 µM
6 | Nc1n[nH]c(Nc2cccc(Cl)c2Cl)c1C(=O)c1cccs1 | 3.45 | IC50 (PBLUC_HILL_SLOPE 0.162, PBLUC_R_SQUARED 0.284, read-out: LUCIFERASE INFECTION ASSAY - IC50): < 0.0128 µM
7 | C=CCNC(=S)N1CCc2sccc2C1c1ccc(OC)cc1 (stereo not given) | > 9.58 | IC50 (PBLUC_HILL_SLOPE 0.135, PBLUC_R_SQUARED 0.112, read-out: LUCIFERASE INFECTION ASSAY - IC50): > 9.58 µM
8 | O=C(N/N=C1/C(=O)c2cccc3cccc1c23)c1ccccc1-n1cccc1 | > 10 | IC50 (PBLUC_HILL_SLOPE 0.275, PBLUC_R_SQUARED 0.0663, read-out: LUCIFERASE INFECTION ASSAY - IC50): > 10 µM
9 | Cc1ccc2c(Cl)cc(Cl)c(Oc3ncnc4scc(-c5ccc(Cl)cc5)c34)c2n1 | > 10 | IC50 (PBLUC_HILL_SLOPE 0.397, PBLUC_R_SQUARED 0.123, read-out: LUCIFERASE INFECTION ASSAY - IC50): > 10 µM
10 | Cc1ccc(Sc2nc(-c3cccs3)ns2)cc1 | > 11.4 | IC50 (PBLUC_HILL_SLOPE 0.427, PBLUC_R_SQUARED 0.742, read-out: LUCIFERASE INFECTION ASSAY - IC50): 0.259 µM
11 | Cc1cc2oc(=O)cc(Cn3cnc([N+](=O)[O-])c3)c2cc1C | > 10 | IC50 (PBLUC_HILL_SLOPE 0.353, PBLUC_R_SQUARED 0.0201, read-out: LUCIFERASE INFECTION ASSAY - IC50): > 10 µM
12 | COc1ccc2ccccc2c1/C=N/n1c(-c2ccc(Br)s2)cs/c1=N\c1ccc(Cl)cc1 | > 10 | IC50 (PBLUC_HILL_SLOPE 0.354, PBLUC_R_SQUARED 0.256, read-out: LUCIFERASE INFECTION ASSAY - IC50): > 10 µM
13 | O=C(Nc1cc(C(F)(F)F)cc(C(F)(F)F)c1)c1cc2ccccc2s1 | > 8.48 | IC50 (PBLUC_HILL_SLOPE 0.25, PBLUC_R_SQUARED 0.0524, read-out: LUCIFERASE INFECTION ASSAY - IC50): > 8.48 µM
14 | O=C(Nc1ccc(Cl)cc1)O/N=C(\Nc1ccc(OC(F)(F)F)cc1)c1c(Cl)cccc1Cl | > 6.36 | IC50 (PBLUC_HILL_SLOPE 0.408, PBLUC_R_SQUARED 0.392, read-out: LUCIFERASE INFECTION ASSAY - IC50): > 6.36 µM
15 | CN(C)S(=O)(=O)c1cccc(C(=O)Nc2cnc3ccccc3c2)c1 | > 10 | IC50 (PBLUC_HILL_SLOPE 0.341, PBLUC_R_SQUARED 0.599, read-out: LUCIFERASE INFECTION ASSAY - IC50): 0.331 µM
16 | Cc1cc(-n2c(-c3cccnc3Oc3ccccc3)n[nH]c2=S)ccc1Br | > 7.51 | IC50 (PBLUC_HILL_SLOPE 0.263, PBLUC_R_SQUARED 0.232, read-out: LUCIFERASE INFECTION ASSAY - IC50): > 7.51 µM
17 | CCCn1c(C)cc(/C=C(\C#N)C(=O)OCC(=O)Nc2sc(C)c(-c3ccc(C)cc3)c2C(=O)OCC)c1C | > 10 | IC50 (PBLUC_HILL_SLOPE 0.191, PBLUC_R_SQUARED 0.0121, read-out: LUCIFERASE INFECTION ASSAY - IC50): > 10 µM
18 | Clc1ccc(C2=NC(c3ccc(Cl)c(Cl)c3)N=C(c3ccc(Cl)cc3)S2)cc1 | > 7.08 | IC50 (PBLUC_HILL_SLOPE 0.411, PBLUC_R_SQUARED 0.521, read-out: LUCIFERASE INFECTION ASSAY - IC50): > 7.08 µM
19 | CCOC(=O)c1c(C)[nH]c(C(=O)Nc2cccc(C)n2)c1C | > 10 | IC50 (PBLUC_HILL_SLOPE 0.344, PBLUC_R_SQUARED 0.589, read-out: LUCIFERASE INFECTION ASSAY - IC50): 0.0971 µM
20 | CCCCn1nc(C)c(C(=O)Nc2nc3ccccc3[nH]2)c1Cl | > 10 | IC50 (PBLUC_HILL_SLOPE 0.43, PBLUC_R_SQUARED 0.84, read-out: LUCIFERASE INFECTION ASSAY - IC50): 0.0912 µM

Row | SMILES | IC90 [µM] | other results
21 | COc1ccc(N2CCN(CCCNS(=O)(=O)c3ccc(Cl)cc3C(F)(F)F)CC2)cc1 | > 10 | IC50 (PBLUC_HILL_SLOPE 0.0792, 17.3, PBLUC_R_SQUARED 0.0344, 0.317, read-out: LUCIFERASE INFECTION ASSAY - IC50): 9.67 µM
22 | COc1ccc(Cl)cc1COC(=O)COc1ccc2c(c1)CCC(=O)N2 | > 10 | IC50 (PBLUC_HILL_SLOPE 0.441, PBLUC_R_SQUARED 0.194, read-out: LUCIFERASE INFECTION ASSAY - IC50): > 10 µM
23 | CS(=O)(=O)c1nc2ccccc2n1CC(=O)c1ccc2c(c1)CCO2 | > 10 | IC50 (PBLUC_HILL_SLOPE 0.389, PBLUC_R_SQUARED 0.133, read-out: LUCIFERASE INFECTION ASSAY - IC50): > 10 µM
24 | O=C(CCCc1cccs1)Nc1nnc[nH]1 | > 10 | IC50 (PBLUC_HILL_SLOPE 0.436, PBLUC_R_SQUARED 0.0408, read-out: LUCIFERASE INFECTION ASSAY - IC50): > 10 µM
25 | CCn1c(CNC(=O)C2CCN(c3ccc(C#N)cn3)CC2)nc2ccccc21 | > 10 | IC50 (PBLUC_HILL_SLOPE 0.433, PBLUC_R_SQUARED 0.506, read-out: LUCIFERASE INFECTION ASSAY - IC50): 4.94 µM
26 | COc1cccc(NC(=O)c2cc(C(C)(C)C)n(-c3ccccc3)c2C)c1 | > 9.1 | IC50 (PBLUC_HILL_SLOPE 0.223, PBLUC_R_SQUARED 0.111, read-out: LUCIFERASE INFECTION ASSAY - IC50): > 9.1 µM
27 | CCCCc1ccc(C(=O)Nc2nc3ccccn3c2C(=O)NCCCN2CCOCC2)cc1 | > 7.12 | IC50 (PBLUC_HILL_SLOPE 0.361, PBLUC_R_SQUARED 0.518, read-out: LUCIFERASE INFECTION ASSAY - IC50): 2.21 µM
28 | COc1ccccc1NC(=S)N/N=C/c1ccc(N2CCOCC2)cc1 | > 10 | IC50 (PBLUC_HILL_SLOPE 0.342, PBLUC_R_SQUARED 0.162, read-out: LUCIFERASE INFECTION ASSAY - IC50): 1.98 µM
29 | CN(C)CCCOc1ccc(-c2ccc(C(C)(C)C)cc2)cn1 | > 10.6 | IC50 (PBLUC_HILL_SLOPE 0.428, PBLUC_R_SQUARED 0.727, read-out: LUCIFERASE INFECTION ASSAY - IC50): 0.0859 µM
30 | O=C(COc1ccccc1CSc1ccc(Cl)cc1)N/N=C\c1ccc(Cl)cc1 | > 7.41 | IC50 (PBLUC_HILL_SLOPE 0.291, PBLUC_R_SQUARED 0.508, read-out: LUCIFERASE INFECTION ASSAY - IC50): > 7.41 µM
31 | O=C(Nc1ccc(Cl)cc1)OCc1nccn1Cc1ccc(Cl)cc1 | > 8.77 | IC50 (PBLUC_HILL_SLOPE 0.184, PBLUC_R_SQUARED 0.0602, read-out: LUCIFERASE INFECTION ASSAY - IC50): > 8.77 µM
32 | COc1ccc(S(=O)(=O)NC(C)(C)C)cc1C(C)(C)C | > 3.33 | IC50 (PBLUC_HILL_SLOPE 0.386, PBLUC_R_SQUARED 0.474, read-out: LUCIFERASE INFECTION ASSAY - IC50): 0.196 µM
33 | CC1(C)CC(CCNCc2ccc(F)cc2)(Cc2ccccc2)CCO1 (stereo not given) | 4.13 | IC50 (HEPG2TOX_HILL_SLOPE 551, HEPG2TOX_R_SQUARED 0.482, PBLUC_HILL_SLOPE 3.65, PBLUC_R_SQUARED 0.507, read-out: LUCIFERASE INFECTION ASSAY - IC50): 2.26 µM
34 | N=C1NC(=O)C(C2(O)C(=O)N(Cc3ccccc3)c3ccc(Cl)cc32)S1 (stereo not given) | > 8.51 | IC50 (PBLUC_HILL_SLOPE 0.13, PBLUC_R_SQUARED 0.0166, read-out: LUCIFERASE INFECTION ASSAY - IC50): > 8.51 µM
35 | C(#Cc1ccc(-c2cc[nH]n2)s1)c1ccccc1 | > 13.2 | IC50 (PBLUC_HILL_SLOPE 0.121, PBLUC_R_SQUARED 0.262, read-out: LUCIFERASE INFECTION ASSAY - IC50): 0.0465 µM
36 | O=C(Nc1ccc(N2CCCC2)cn1)c1cc(Cl)ccn1 | 2.06 | IC50 (PBLUC_HILL_SLOPE 0.363, 0.720, PBLUC_R_SQUARED 0.388, 0.822, read-out: LUCIFERASE INFECTION ASSAY - IC50): 0.119 µM
37 | Cc1cnc(C(=O)Nc2cc(C(F)(F)F)ccc2N2CCN(C)CC2)cn1 | > 10 | IC50 (PBLUC_HILL_SLOPE 0.31, PBLUC_R_SQUARED 0.853, read-out: LUCIFERASE INFECTION ASSAY - IC50): > 10 µM
38 | O=C(COC(=O)C1Cc2ccccc2CN1S(=O)(=O)/C=C/c1ccccc1)c1ccccc1 (stereo not given) | > 10 | IC50 (PBLUC_HILL_SLOPE 0.237, PBLUC_R_SQUARED 0.0458, read-out: LUCIFERASE INFECTION ASSAY - IC50): > 10 µM
39 | Cc1cc2ncc(-c3ccnc(SCC(=O)Nc4ccc(Cl)cc4Cl)n3)c(C)n2n1 | > 7.18 | IC50 (PBLUC_HILL_SLOPE 0.44, PBLUC_R_SQUARED 0.0613, read-out: LUCIFERASE INFECTION ASSAY - IC50): > 7.18 µM
40 | CCOC(=O)c1sc(N(Cc2ccccc2)C(=O)C2CC2C)nc1C (stereo not given) | > 10 | IC50 (PBLUC_HILL_SLOPE 0.389, PBLUC_R_SQUARED 0.128, read-out: LUCIFERASE INFECTION ASSAY - IC50): 1.6 µM
